The numbers were not newly measured in article PMC6376154 (International Journal for Parasitology: Drugs and Drug …, 2019), which cites them from elsewhere.

The data set relates to P. falciparum 3D7 asexual blood stage. Particulars: cited from earlier work.
Setting [1] is: MMV Malaria Box data sheet (supplement mmc2.xls), ref MMV data sheet, read-out: EC50_nM.
Where [2] appears, read: value(s) per source (GSK, GNF, StJude), separated by semicolon, ref ChEMBL-NTD, read-out: CHEMBL EC50.
[3] abbreviates: MMV Malaria Box data sheet (supplement mmc2.xls), ref MMV data sheet.
Where [4] appears, read: MMV Malaria Box data sheet, ref MMV data sheets.
[5] abbreviates: MMV Malaria Box data sheet, ref MMV data sheets, read-out: EC50_nM.
Where [6] appears, read: source GSK, ref ChEMBL_NTD, read-out: CHEMBL EC50.
The mark [7] stands for this setting: MMV Malaria Box sheet, ref MMV data sheets.
Setting [8] is: MMV Malaria Box sheet, ref MMV data sheets, read-out: EC50_nM.

Read-outs that look alike come from different tables or passages of the source.

`COCCNCC(O)Cn1c2ccc(Cl)cc2c2cc(Cl)ccc21` (centres unmarked) [MMV019017]: the EC50 runs as follows: under setting [1], 1010 nM; under setting [2], 52 nM.

In the case of `COc1cccc(-c2nn(C)c3sc(C(=O)NCCN4CCN(c5ccccc5F)CC4)cc23)c1` [MMV019064], the “percent_inh @ 5 uM” value under setting [3] is on record as 91%. Besides, the EC50 runs as follows: under setting [1], 1300 nM; under setting [2], 955 nM.

In the case of `COc1ccccc1CNC(=O)CCn1c(=O)[nH]c2ccsc2c1=O` [MMV019066], the “percent_inh @ 5 uM” value under setting [4] is 67%. The EC50 reads like this: under setting [5], 140 nM; under setting [6], 1040 nM.

For the compound `CCN1CCN(c2cc(C)c3cc(NC(=O)c4ccc(OC)c(OC)c4)ccc3n2)CC1` [MMV019074], the “percent_inh @ 5 uM” value under setting [3] is given as 99%. Besides, the EC50 under setting [2] was 1030 nM.

Regarding `Cc1cccc(Nc2nc(N)c3ccccc3n2)c1` [MMV019110], where the note is “2 uM, MMV Malaria Box data sheet, ref MMV data sheets”, the “percent_inh @ 2 uM” value is reported as 97%. In addition, the EC50 was 400 nM under setting [5] and 574 nM under setting [6].

Turning to `CCN(Cc1ccccc1)C1CCN(Cc2cc(Br)ccc2O)CC1` [MMV019127], the “percent_inh @ 5 uM” value under setting [3] is 97%. The EC50 was 625 nM under setting [1] and 823 nM under setting [2].

Turning to `COc1cccc(Nc2nc(N)c3ccccc3n2)c1` [MMV019199], the EC50 (ChEMBL-NTD value per source (GNF, GSK, StJude), several values in a cell follow the order of the sources, read-out: CHEMBL EC50) was 934 nM.

For the compound `O=C(Nc1ccc(-c2nc3cc4ccccc4cc3[nH]2)cc1)c1cccc(Br)c1` [MMV019241], the “percent_inh @ 5 uM” value under setting [7] is listed as 93%. Also, the EC50 was 450 nM under setting [8] and 363 nM under setting [6].

`COc1ccc(-n2ccnc2SCC(=O)Nc2cc(C)ccc2C)c(OC)c1` [MMV019258]: the “percent_inh @ 5 uM” value under setting [4] is 95%. Also, the EC50 by setting is: under setting [5], 170 nM; under setting [6], 205 nM.

For the compound `Cc1sc2ncnc(Sc3nc4ccccc4[nH]3)c2c1C` [MMV019266], the “percent_inh @ 5 uM” value under setting [7] is recorded as 100%. Further, the EC50 under setting [8] is 614 nM and the EC50 under setting [6] is 255 nM.

Consider `Cn1c(=O)c2cc(C(=O)NCCCN3CCCCCC3)sc2c2ccccc21` [MMV019313], for which, under setting [3], the “percent_inh @ 5 uM” value is listed as 97%. Besides, the EC50 under setting [1] is 669 nM and the EC50 under setting [2] is 689 nM.

With `CCC1(C)CC(CCNCc2ccccc2O)(c2ccc(C)cc2)CCO1` (centres unmarked) [MMV019406], the “percent_inh @ 5 uM” value under setting [4] was 97%. The EC50 reads like this: under setting [5], 142 nM; under setting [6], 38.8 nM.

In the case of `c1ccc2c(NCCCCCCNc3c4c(nc5ccccc35)CCCC4)c3c(nc2c1)CCCC3` [MMV019555], under setting [7], the “percent_inh @ 5 uM” value is 100%. Further, the EC50 reads like this: under setting [8], 376 nM; under setting [6], 196 nM.

For the compound `COc1ccc(N2CCN(C(CNC(=O)C3CCCCC3)c3ccc4c(c3)OCO4)CC2)cc1` (centres unmarked) [MMV019662], the “percent_inh @ 5 uM” value under setting [3] is on record as 97%. The EC50 is, setting by setting: under setting [1], 1110 nM; under setting [2], 566 nM.

For `O=C(Nc1ccc(N2CCN(Cc3ccccc3)CC2)cc1)c1cccs1` [MMV019670], under setting [3], the “percent_inh @ 5 uM” value was 59%. Further, the EC50 is 1080 nM under setting [1] and 769 nM under setting [2].

Turning to `COc1ccc(C2NCCc3c2[nH]c2ccccc32)cc1CN1CCN(c2ccc(F)cc2)CC1` (centres unmarked) [MMV019690], the “percent_inh @ 5 uM” value under setting [7] is reported as 97%. Further, the EC50 is, setting by setting: under setting [8], 934 nM; under setting [6], 776 nM.

Take `O=C(Nc1ccc(N2CCCCC2)c(Cl)c1)c1ccc(Br)o1` [MMV019700]: the “percent_inh @ 5 uM” value under setting [3] is reported as 96%. The EC50 under setting [1] is 735 nM and the EC50 under setting [2] is 549 nM.

Turning to `Cc1[nH]c(-c2ccc(F)cc2)cc1C(=O)NC1CCN(Cc2ccccc2)CC1` [MMV019738], the “percent_inh @ 5 uM” value under setting [3] is reported as 99%. In addition, the EC50 under setting [1] was 771 nM and the EC50 under setting [2] was 1130 nM.

Take `Cc1ccc(C)c(Cn2c(N3CCC(C(=O)NCc4cccs4)CC3)nc3ccccc32)c1` [MMV019741]: the “percent_inh @ 5 uM” value under setting [7] is listed as 97%. The EC50 reads like this: under setting [8], 1330 nM; under setting [6], 938 nM.

As to `Cc1ccc(Cl)cc1N1CCN(CCCNC(=O)C2CCN(c3nc4ccccc4[nH]3)CC2)CC1` [MMV019746], under setting [3], the “percent_inh @ 5 uM” value is 97%. Besides, the EC50 is 1330 nM under setting [1] and 895 nM under setting [2].
